{"source": "patent US20260317296A1", "about": "“HETEROCYCLIC COMPOUNDS FOR IMAGING AGGREGATED TAU IN TAUOPATHIES” (University of Pittsburgh - Of the Commonwealth System of …, priority 2023, published 2026)", "key": {"[1]": {"biological_target": "T1, aggregated 4R-tau in PSP tissue (Homo sapiens, UniProt P10636)", "T1 construct": "autopsy-confirmed postmortem AD, PSP, and CBD human brain tissues; tissue UCSF Neurodegenerative Disease Brain Bank; host or cells: post-mortem human PSP brain homogenate", "T1 sequence (P10636 1-441 isoform P10636-8)": "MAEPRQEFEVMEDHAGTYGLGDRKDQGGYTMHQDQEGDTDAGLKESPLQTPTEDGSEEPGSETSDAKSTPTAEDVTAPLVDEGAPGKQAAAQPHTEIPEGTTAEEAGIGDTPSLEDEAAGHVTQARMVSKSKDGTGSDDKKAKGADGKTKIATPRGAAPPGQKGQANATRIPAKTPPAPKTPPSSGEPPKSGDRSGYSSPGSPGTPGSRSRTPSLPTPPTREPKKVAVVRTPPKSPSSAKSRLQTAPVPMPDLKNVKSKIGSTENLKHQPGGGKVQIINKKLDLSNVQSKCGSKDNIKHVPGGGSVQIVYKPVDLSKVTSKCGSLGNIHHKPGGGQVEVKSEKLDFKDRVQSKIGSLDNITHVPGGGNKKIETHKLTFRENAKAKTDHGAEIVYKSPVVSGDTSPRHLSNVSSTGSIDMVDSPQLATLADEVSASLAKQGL", "assay": "In vitro competition (Ki) assay, PSP brain tissue homogenate", "format": "binding", "experimental": "(§1) The assays utilized autopsy-confirmed postmortem AD, PSP, and CBD human brain tissues obtained from the UCSF Neurodegenerative Disease Brain Bank and contained frequent autopsy-confirmed 3R/4R-tau and amyloid-beta aggregates (AD tissue) or only 4R-tau aggregates (PSP and CBD tissues) and no other detectable aggregated amyloid species. Briefly, the tissues were homogenized in ice-cold pH 7.0 phosphate buffered saline (PBS) at 300 mg/mL on ice using a glass homogenizer, diluted 30-fold with PBS to 10 mg/mL and homogenized a second time with a Brinkmann Polytron homogenizer before storage at −80° C. Frozen brain tissue was thawed and diluted 10-fold in PBS to 1 mg/mL. […] The appropriate concentrations (ranging from 0.1-1000 nM) of unlabeled competitor in 400 μL of PBS buffer were combined with 500 μL of the tritium-labeled radioligand in PBS (~1 nM final concentration of radioligand). The assay was initiated by the addition of 100 μL of 1 mg/mL brain tissue homogenate to achieve a final concentration of 100 pg tissue/mL. After incubation for 60 min at room temperature, the binding mixture was filtered through a Whatman GF/B glass filter via a Brandel M-24R cell harvester (Gaithersburg, MD, USA) and rapidly washed four times with 3 mL PBS buffer. The filters were counted in Cytoscint-ES after thorough vortexing using a liquid scintillation counter. […] All assays were performed in triplicate at each concentration."}, "[2]": {"biological_target": "T2, aggregated 4R-tau in AD tissue (Homo sapiens, UniProt P10636)", "T2 construct": "autopsy-confirmed postmortem AD, PSP, and CBD human brain tissues; tissue UCSF Neurodegenerative Disease Brain Bank; host or cells: post-mortem human AD brain homogenate", "T2 sequence (P10636 1-441 isoform P10636-8)": "as above", "T2 sequence (P10636 1-410 isoform P10636-5)": "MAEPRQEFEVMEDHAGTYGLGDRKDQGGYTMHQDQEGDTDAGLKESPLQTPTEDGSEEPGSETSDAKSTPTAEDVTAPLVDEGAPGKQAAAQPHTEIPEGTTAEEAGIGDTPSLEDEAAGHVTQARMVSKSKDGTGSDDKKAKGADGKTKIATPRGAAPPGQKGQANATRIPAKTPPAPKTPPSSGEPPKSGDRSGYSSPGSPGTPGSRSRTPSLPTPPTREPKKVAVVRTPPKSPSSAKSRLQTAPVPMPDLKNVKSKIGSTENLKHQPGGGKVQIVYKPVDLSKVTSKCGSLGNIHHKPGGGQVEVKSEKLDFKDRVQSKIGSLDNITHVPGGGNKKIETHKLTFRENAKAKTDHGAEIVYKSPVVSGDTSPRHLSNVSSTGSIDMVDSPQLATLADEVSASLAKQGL", "assay": "In vitro competition (Ki) assay, AD brain tissue homogenate", "format": "binding", "experimental": "as §1"}, "[3]": {"biological_target": "T3, aggregated 4R-tau in AD brain (Homo sapiens, UniProt P10636)", "T3 construct": "aggregated 4R-tau in human brain tissue samples from AD, PSP, and CBD patients; from tissue; host or cells: homogenized cortex of human AD brain", "T3 sequence (P10636 1-441 isoform P10636-8)": "as the sequence (P10636 1-441 isoform P10636-8) above", "T3 sequence (P10636 1-410 isoform P10636-5)": "as the sequence (P10636 1-410 isoform P10636-5) above", "assay": "Binding affinity (Kd) assay, AD brain homogenate", "conditions": "for Kd: AD brain, Table 1"}, "[4]": {"biological_target": "T4, aggregated 4R-tau in CBD brain (Homo sapiens, UniProt P10636)", "T4 construct": "aggregated 4R-tau in human brain tissue samples from AD, PSP, and CBD patients; from tissue; host or cells: homogenized cortex of human CBD brain", "T4 sequence (P10636 1-441 isoform P10636-8)": "as the sequence (P10636 1-441 isoform P10636-8) above", "assay": "Binding affinity (Kd) assay, CBD brain homogenate", "conditions": "for Kd: CBD brain, Table 1"}, "[5]": {"biological_target": "T5, aggregated 4R-tau in PSP brain (Homo sapiens, UniProt P10636)", "T5 construct": "aggregated 4R-tau in human brain tissue samples from AD, PSP, and CBD patients; from tissue; host or cells: homogenized cortex of human PSP brain", "T5 sequence (P10636 1-441 isoform P10636-8)": "as above", "assay": "Binding affinity (Kd) assay, PSP brain homogenate", "conditions": "for Kd: PSP brain, Table 1"}, "[6]": {"biological_target": "T6, PiB binding site on amyloid-beta (Homo sapiens, UniProt P05067)", "T6 construct": "from tissue; host or cells: post-mortem human AD brain", "T6 sequence (P05067 672-713 limits assumed)": "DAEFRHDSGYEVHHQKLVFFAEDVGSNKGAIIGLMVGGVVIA", "assay": "Competition against [^3H]PiB in post-mortem human AD brain tissue", "experimental": "The assays utilized autopsy-confirmed postmortem AD, PSP, and CBD human brain tissues obtained from the UCSF Neurodegenerative Disease Brain Bank and contained frequent autopsy-confirmed 3R/4R-tau and amyloid-beta aggregates (AD tissue) or only 4R-tau aggregates (PSP and CBD tissues) and no other detectable aggregated amyloid species. Briefly, the tissues were homogenized in ice-cold pH 7.0 phosphate buffered saline (PBS) at 300 mg/mL on ice using a glass homogenizer, diluted 30-fold with PBS to 10 mg/mL and homogenized a second time with a Brinkmann Polytron homogenizer before storage at −80° C. Frozen brain tissue was thawed and diluted 10-fold in PBS to 1 mg/mL. […] The appropriate concentrations (ranging from 0.1-1000 nM) of unlabeled competitor in 400 μL of PBS buffer were combined with 500 μL of the tritium-labeled radioligand in PBS (~1 nM final concentration of radioligand). The assay was initiated by the addition of 100 μL of 1 mg/mL brain tissue homogenate to achieve a final concentration of 100 pg tissue/mL. After incubation for 60 min at room temperature, the binding mixture was filtered through a Whatman GF/B glass filter via a Brandel M-24R cell harvester (Gaithersburg, MD, USA) and rapidly washed four times with 3 mL PBS buffer. The filters were counted in Cytoscint-ES after thorough vortexing using a liquid scintillation counter. […]"}, "alpha-synuclein": {"biological_target": "T7, alpha-synuclein (Homo sapiens, UniProt P37840)", "T7 construct": "Parkinson's Disease (PD) post-mortem brain tissue; from tissue; host or cells: post-mortem Parkinson's Disease brain", "assay": "Homologous binding assay, Parkinson's Disease (PD) brain tissue"}, "AD brain tissue": {"tested_on": "AD brain tissue", "assay": "Autoradiography, post-mortem AD brain tissue", "format": "binding, human", "conditions": "medial frontal cortex, 5 nM, self-blocking with 1 mM unlabeled 69"}, "P301L mouse brain tissue": {"biological_target": "T8, P301L mouse brain tissue (Homo sapiens, UniProt P10636, P618L)", "T8 construct": "from tissue; host or cells: brain tissue of P301L mouse", "T8 sequence (P10636 1-441 isoform P10636-8 P301L)": "as the sequence (P10636 1-441 isoform P10636-8) above, with P301L counted along it", "assay": "Homologous binding assay, P301L mouse brain tissue"}, "[7]": {"biological_target": "T9, Pick's Disease brain tissue (Homo sapiens, UniProt P10636)", "T9 construct": "post-mortem human AD, PSP, CBD, and Pick's Disease brain tissue; from tissue; host or cells: post-mortem human Pick's Disease brain", "T9 sequence (P10636 1-410 isoform P10636-5)": "as the sequence (P10636 1-410 isoform P10636-5) above", "assay": "Homologous binding assay, Pick's Disease brain tissue", "conditions": "post-mortem human Pick's Disease brain tissue"}, "PSP brain tissue": {"tested_on": "PSP brain tissue", "assay": "Autoradiography, post-mortem PSP brain tissue", "format": "binding, human", "conditions": "medial frontal cortex, 5 nM, self-blocking with 1 mM unlabeled 69"}, "CBD brain tissue": {"tested_on": "CBD brain tissue", "assay": "Autoradiography, post-mortem CBD brain tissue", "format": "binding, human", "conditions": "medial frontal cortex, 5 nM, self-blocking with 1 mM unlabeled 69"}, "[8]": {"tested_on": "post-mortem human brain control tissue", "assay": "Autoradiography, post-mortem control brain tissue", "format": "binding", "conditions": "cingulate gyrus, 5 nM, self-blocking with 1 mM unlabeled 69"}, "log D of radiotracer": {"assay": "log D of radiotracer", "format": "physicochemical", "conditions": "n=4"}, "[9]": {"conditions": "vs [^3H]1, n = 1, Ki=IC50/2, read-out: Inhibition Constant (Ki) versus [^3H]1"}, "[10]": {"conditions": "post-mortem human AD brain tissue"}, "[11]": {"conditions": "vs [^3H]2, n = 1, Ki=IC50/2, read-out: Inhibition Constant (Ki) versus [^3H]2"}}, "note": "Like-named read-outs stand apart in the source and are kept apart here."}
{"compound": "OC1CCN(c2ncc(-c3cc4cc(F)ccc4[nH]3)cn2)CC1", "note": "[Compound 47, 1-(5-(5-Fluoro-1H-indol-2-yl)pyrimidin-2-yl)piperidin-4-ol]", "values": [{"measurement": "Ki", "setting": "[1]; [9]", "value": 20, "unit": "nM"}, {"measurement": "Ki", "setting": "[2]; [9]", "value": 21, "unit": "nM"}]}
{"compound": "OC1CCN(c2ncc(-c3cc4cc(F)ccc4o3)cn2)CC1", "note": "[Compound 43, 1-(5-(5-Fluorobenzofuran-2-yl)pyrimidin-2-yl)piperidin-4-ol]", "values": [{"measurement": "Ki", "setting": "[1]; [9]", "value": 91, "unit": "nM"}, {"measurement": "Ki", "setting": "[2]; [9]", "value": 45, "unit": "nM"}]}
{"compound": "Cn1c(-c2cnc(N3CCOCC3)nc2)cc2ccc(F)cc21", "note": "[Compound 103, 4-(5-(6-Fluoro-1-methyl-1H-indol-2-yl)pyrimidin-2-yl)morpholine]", "values": [{"measurement": "Ki", "setting": "[1]; [9]", "value": 32, "unit": "nM"}, {"measurement": "Ki", "setting": "[2]; [9]", "value": 22, "unit": "nM"}]}
{"compound": "OC1CCN(c2ncc(-c3cc4ccc(F)cc4[nH]3)cn2)CC1", "note": "[[^3H]1]", "values": [{"measurement": "Kd", "setting": "[3]", "value": "4 ± 3.1", "unit": "nM"}, {"measurement": "Kd", "setting": "[4]", "value": 4.1, "unit": "nM"}, {"measurement": "Kd", "setting": "[5]", "value": "5.1 ± 1.2", "unit": "nM"}]}
{"compound": "OC1CCN(c2ncc(-c3cc4ccccc4[nH]3)cn2)CC1", "note": "[Compound 46, 1-(5-(1H-Indol-2-yl)pyrimidin-2-yl)piperidin-4-ol]", "values": [{"measurement": "Ki", "setting": "[1]; [9]", "value": 24, "unit": "nM"}, {"measurement": "Ki", "setting": "[2]; [9]", "value": 11, "unit": "nM"}]}
{"compound": "Fc1ccc2cc(-c3cnc(N4CCC(F)(F)CC4)nc3)[nH]c2c1", "note": "[Compound 17, 2-(2-(4,4-Difluoropiperidin-1-yl)pyrimidin-5-yl)-6-fluoro-1H-indole]", "values": [{"measurement": "Ki", "setting": "[1]; [9]", "value": 23, "unit": "nM"}, {"measurement": "Ki", "setting": "[2]; [9]", "value": 37, "unit": "nM"}]}
{"compound": "Fc1nc(N2CCOCC2)ccc1-c1cc2ccccc2[nH]1", "note": "[Compound 69, 4-(6-Fluoro-5-(1H-indol-2-yl)pyridin-2-yl)morpholine]", "values": [{"measurement": "binding to the PiB binding site on amyloid-beta (in words)", "setting": "[6]; concluded from competition against [^3H]PiB", "value": "does bind to the PiB binding site on amyloid-beta"}, {"measurement": "competition against [^3H]PiB (in words)", "setting": "[6]; [10]", "value": "does not compete well"}, {"measurement": "binding to alpha-synuclein (in words)", "setting": "alpha-synuclein; concluded from PD brain tissue", "value": "does not bind strongly to alpha-synuclein"}]}
{"compound": "Fc1nc(N2CCOCC2)ccc1-c1cc2ccccc2[nH]1", "note": "[[^3H]69]", "values": [{"measurement": "binding affinity (in words)", "setting": "[3]; [10]", "value": "high affinity"}, {"measurement": "specific binding by autoradiography", "setting": "AD brain tissue", "value": "Specific binding"}, {"measurement": "binding affinity (in words)", "setting": "P301L mouse brain tissue", "value": "high affinity"}, {"measurement": "binding affinity (in words)", "setting": "[4]; post-mortem human CBD brain tissue", "value": "high affinity"}, {"measurement": "binding affinity (in words)", "setting": "[7]", "value": "high affinity"}, {"measurement": "specific binding by autoradiography", "setting": "PSP brain tissue", "value": "Specific binding"}, {"measurement": "specific binding by autoradiography", "setting": "CBD brain tissue", "value": "Specific binding"}, {"measurement": "binding affinity (in words)", "setting": "[5]; post-mortem human PSP brain tissue", "value": "high affinity"}, {"measurement": "Kd", "setting": "alpha-synuclein; PD tissue, Table 7 (n = 4)", "value": "110 ± 54", "unit": "nM"}, {"measurement": "binding affinity (in words)", "setting": "alpha-synuclein; Parkinson's Disease (PD) post-mortem brain tissue", "value": "low affinity"}, {"measurement": "specific binding by autoradiography", "setting": "[8]", "value": "Little to no specific binding"}]}
{"compound": "Fc1ccc2cc(-c3ncc(N4CCOCC4)cc3F)[nH]c2c1", "note": "[Compound 98, 4-(5-Fluoro-6-(6-fluoro-1H-indol-2-yl)pyridin-3-yl)morpholine]", "values": [{"measurement": "Ki", "setting": "[1]; [11]", "value": 20, "unit": "nM"}, {"measurement": "Ki", "setting": "[2]; [11]", "value": 17, "unit": "nM"}]}
{"compound": "Fc1ccc2cc(-c3cnc(N4CCOCC4)nc3)[nH]c2c1", "note": "[[^3H]2]", "values": [{"measurement": "Kd", "setting": "[3]", "value": "1.2 ± 0.5", "unit": "nM"}, {"measurement": "Kd", "setting": "[4]", "value": "1.7 ± 0.3", "unit": "nM"}, {"measurement": "Kd", "setting": "[5]", "value": "1.6 ± 0.2", "unit": "nM"}]}
{"compound": "Fc1ccc2cc(-c3cnc(N4CCOCC4)cc3F)[nH]c2c1", "note": "[Compound 82, 4-(4-Fluoro-5-(6-fluoro-1H-indol-2-yl)pyridin-2-yl)morpholine]", "values": [{"measurement": "Ki", "setting": "[1]; [11]", "value": 12, "unit": "nM"}, {"measurement": "Ki", "setting": "[2]; [11]", "value": 11, "unit": "nM"}]}
{"compound": "[18F]c1nc(N2CCOCC2)ccc1-c1cc2ccccc2[nH]1", "note": "[[^18F]69, 4-(6-[^18F]Fluoro-5-(1H-indol-2-yl)pyridin-2-yl)morpholine]", "values": [{"measurement": "logD", "setting": "log D of radiotracer", "value": "1.96 ± 10"}]}
